Test results published in the supplement of paper PMC10307832.

Columns and labels:
Assay in all cases: relative viability (nuclei count vs DMSO), 5 days (fraction); higher = more cells survive
[1] = compound: CC1=C(C(=O)N2C=CSC2=N1)CCN3CCC(=C(C4=CC=CC=C4)C5=CC=C(C=C5)F)CC3 + NC(=O)Nc1cc(-c2cccc(F)c2)sc1C(=O)N[C@H]1CCCNC1 [AZD7762] (partner 0.2 µM)
How it was run: (§1)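 A single step with final 0.05% Triton X-100, 1% formaldehyde and 1 ug/ml Hoechst fixed the cells and stained nuclei 5 days after treatment. Lung cancer cell lines in 1536-well plates had been treated by pin tool the day after seeding with one drug alone or a fixed anchor-drug dose plus five library-drug doses (not always all listed) in √10 steps, and nuclei were counted on 4× images. Relative viability is the ratio of nuclei in treated wells to nuclei in vehicle wells, taken as the median of duplicate plates.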

[2] = compound: CC1=C(C(=O)N2C=CSC2=N1)CCN3CCC(=C(C4=CC=CC=C4)C5=CC=C(C=C5)F)CC3 + CC(C)C[C@H](NC(=O)[C@H](Cc1ccccc1)NC(=O)c1cnccn1)B(O)O [Bortezomib] (partner 0.002 µM)
How it was run: as §1

[3] = compound: CC1=C(C(=O)N2C=CSC2=N1)CCN3CCC(=C(C4=CC=CC=C4)C5=CC=C(C=C5)F)CC3 + Nc1ncn([C@H]2C[C@H](O)[C@@H](CO)O2)c(=O)n1 [Decitabine] (partner 2 µM)
How it was run: as §1

[4] = compound: CC1=C(C(=O)N2C=CSC2=N1)CCN3CCC(=C(C4=CC=CC=C4)C5=CC=C(C=C5)F)CC3 + CS(=O)(=O)CCNCc1ccc(-c2ccc3ncnc(Nc4ccc(OCc5cccc(F)c5)c(Cl)c4)c3c2)o1 [Lapatinib] (partner 2 µM)
How it was run: as §1

Row | Cell Line | relative viability ([1]; first compound 0.08 µM) | relative viability ([1]; first compound 0.253 µM) | relative viability ([1]; first compound 0.8 µM) | relative viability ([1]; first compound 2.53 µM) | relative viability ([1]; first compound 8 µM) | relative viability ([2]; first compound 0.08 µM) | relative viability ([2]; first compound 0.253 µM) | relative viability ([2]; first compound 0.8 µM) | relative viability ([2]; first compound 2.53 µM) | relative viability ([2]; first compound 8 µM) | relative viability ([3]; first compound 0.08 µM) | relative viability ([3]; first compound 0.253 µM) | relative viability ([3]; first compound 0.8 µM) | relative viability ([3]; first compound 2.53 µM) | relative viability ([3]; first compound 8 µM) | relative viability ([4]; first compound 0.08 µM) | relative viability ([4]; first compound 0.253 µM) | relative viability ([4]; first compound 0.8 µM) | relative viability ([4]; first compound 2.53 µM) | relative viability ([4]; first compound 8 µM)
1 | 201T | 0.718 | 0.513 | 0.579 | 0.621 | 0.586 | 1.16 | 1.12 | 1.08 | 1.16 | 1.13 | 0.884 | 0.89 | 0.845 | 0.9 | 0.804 | 1.12 | 1.08 | 0.999 | 1.09 | 1.11
2 | A-427 | 0.675 | 0.678 | 0.67 | 0.633 | 0.674 | 1.07 | 1.08 | 0.984 | 1.03 | 0.834 | 0.452 | 0.654 | 0.546 | 0.592 | 0.595 | 1.12 | 0.962 | 0.994 | 1.15 | 1.08
3 | ABC-1 | 0.751 | 0.746 | 0.791 | 0.766 | 0.677 | 0.313 | 0.297 | 0.252 | 0.244 | 0.269 | 1.2 |  | 1.04 | 1.18 | 1.02 | 1.11 | 1.18 | 1.14 | 1.3 | 0.674
4 | BEN | 0.732 | 0.677 | 0.638 | 0.638 | 0.651 | 0.76 | 0.757 | 0.864 | 0.828 | 0.534 | 0.807 | 0.703 | 0.702 | 0.737 | 0.708 | 0.507 | 0.626 | 0.798 | 0.757 | 0.53
5 | CAL-12T | 0.605 | 0.751 | 0.576 | 0.699 | 0.503 |  | 0.745 | 0.843 | 1.03 | 0.733 |  |  |  |  |  |  | 0.588 | 0.754 | 0.668 | 0.644
6 | ChaGo-K-1 | 0.763 | 0.919 | 0.925 | 0.928 | 0.694 | 1.24 | 0.989 | 0.761 | 1.34 | 0.94 | 0.495 | 0.548 | 0.52 | 0.629 | 0.46 |  |  |  |  | 
7 | EKVX | 0.602 | 0.753 | 0.808 | 0.553 | 0.641 | 0.826 | 0.923 | 1.18 | 1.01 | 0.684 | 0.345 | 0.335 | 0.376 | 0.366 | 0.386 | 0.173 | 0.227 | 0.194 | 0.19 | 0.231
8 | EMC-BAC-2 | 1.18 | 0.93 | 1.01 | 1.13 | 1.01 | 0.902 | 1.13 | 1.07 | 1.07 | 0.705 | 1.14 |  | 1.01 | 1.03 | 0.906 | 0.744 | 0.924 | 0.89 | 0.877 | 0.773
9 | EPLC-272H | 0.45 | 0.198 | 0.182 | 0.211 | 0.179 |  | 0.888 | 0.888 | 1.07 | 0.921 | 0.431 | 0.312 | 0.37 | 0.396 | 0.376 |  | 0.921 | 0.809 | 1.09 | 0.873
10 | H3255 | 0.832 | 0.929 | 0.907 | 0.955 | 0.72 | 0.909 | 0.831 | 0.704 | 0.873 | 0.732 | 0.688 | 0.549 | 0.521 | 0.664 | 0.495 | 0.221 | 0.32 | 0.249 | 0.309 | 0.246
11 | HARA | 0.371 | 0.347 | 0.281 | 0.296 | 0.303 | 1.08 | 1.47 | 1.13 | 1.21 | 1.05 | 0.639 | 0.664 | 0.526 | 0.515 | 0.427 | 1.01 | 1.06 | 0.873 | 0.82 | 0.625
12 | LCLC-103H | 0.923 | 0.766 | 0.781 | 0.822 | 0.655 | 1.06 | 1.06 | 0.957 | 1.22 | 0.903 | 0.685 | 0.702 | 0.69 | 0.826 | 0.646 |  |  |  |  | 
13 | NCI-H441 | 0.859 | 1.12 | 1.23 | 1.07 | 0.671 |  | 0.447 | 0.464 | 0.468 | 0.215 | 0.263 | 0.255 | 0.242 | 0.247 | 0.239 |  |  |  |  | 
14 | NCI-H1703 | 0.14 | 0.139 | 0.194 | 0.117 | 0.132 | 0.262 | 0.316 | 0.256 | 0.359 | 0.263 |  |  |  |  |  | 1.57 | 0.717 | 1.23 | 1.69 | 0.62
15 | NCI-H1793 | 0.457 | 0.408 | 0.597 | 0.381 | 0.378 |  |  |  |  |  | 0.433 | 0.558 | 0.502 | 0.505 | 0.416 | 0.793 | 0.535 | 0.748 | 0.864 | 0.575
16 | NCI-H1944 | 0.482 | 0.491 | 0.461 | 0.469 | 0.43 |  |  |  |  |  | 0.462 | 0.43 | 0.413 | 0.433 | 0.417 | 1.1 | 0.904 | 0.773 | 1.1 | 0.898
17 | NCI-H2170 | 0.696 | 0.884 | 0.932 | 0.76 | 0.462 |  |  |  |  |  | 0.522 | 0.461 | 0.487 | 0.457 | 0.395 | 0.274 | 0.268 | 0.276 | 0.278 | 0.274
